# Data published in patent US20200352912A1, “ANTIMICROBIAL COMPOSITIONS AND METHODS OF USING THE SAME” (The Board Of Supervisors Of Louisiana State University And …, priority 2018, published 2020).
# Tests used:
# S. aureus = experiment: colony phenotype on agar plates; format: cell-based, Staphylococcus aureus
# Source text: L-161, 982 inhibits activities associated with the electron transport chain including ATP production. In addition to the sulfonamide group, the chemical structure of L 161, 982 contains a urea group connected to two aryl groups (diarylurea) (FIG. 11). Urea derivatives are commonly used as herbicides, interfering with electron transport (17). […] SCVs typically lack a functional electron transport chain and cannot produce virulence factors such as hemolysins or the antioxidant pigment staphyloxanthin [reviewed in (19)]. […] These defects are all indicative of interruption of electron transport as carotenoid formation as well as toxin production is dependent on an active electron transport (18, 20, 21). During aerobic respiration, the force required for driving ATP synthesis requires a transmembrane electrical potential (membrane potential), which is generated by the electron transport chain.
# DP = DP (Homo sapiens, UniProt Q13258); conditions: cited from earlier work
# Chain of DP (Q13258 whole entry): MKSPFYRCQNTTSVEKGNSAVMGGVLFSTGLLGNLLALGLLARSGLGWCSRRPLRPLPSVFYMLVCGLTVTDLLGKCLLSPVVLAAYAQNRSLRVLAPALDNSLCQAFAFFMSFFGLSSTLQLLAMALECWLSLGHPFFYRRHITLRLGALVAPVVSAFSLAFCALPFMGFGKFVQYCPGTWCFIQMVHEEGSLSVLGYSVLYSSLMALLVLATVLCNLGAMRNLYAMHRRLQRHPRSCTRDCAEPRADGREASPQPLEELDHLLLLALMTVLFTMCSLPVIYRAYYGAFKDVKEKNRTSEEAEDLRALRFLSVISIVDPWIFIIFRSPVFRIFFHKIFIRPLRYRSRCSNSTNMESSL
# [1] = tested on: clinical MRSA and MSSA strains isolated from a patient's catheter; experiment: planktonic antimicrobial assay, clinical isolates; format: cell-based, Staphylococcus aureus
# Description: Effect of COX enzyme inhibitors or PGE2 EP receptor antagonists on microbial growth. The antimicrobial activity of selective COX enzyme inhibitor or PGE2 EP receptor antagonist on the growth of C. albicans DAY185 (A), S. aureus NRS383 (B) and MRSA and MSSA clinical isolates (C). Growth of C. albicans and S. aureus was monitored for up to 24 h in medium alone or supplemented with DMSO or EP receptor antagonists or COX enzyme inhibitor at physiologically relevant concentrations. Data shown are representative of three independent experiments.
# Strains and growth conditions. The methicillin-resistant S. aureus strain NRS383 used in all experiments was obtained from the Network on Antimicrobial Resistance in S. aureus (NARSA) data bank. NRS383 is positive for the toxic shock syndrome toxin (tst) and 6-toxin genes. SJ-MRSA 6 and SJ-SA5 are methicillin-resistant (MRSA) and methicillin-sensitive (MSSA) clinical S. aureus strains respectively isolated from a patient's catheter. […]
# C. albicans and S. aureus were grown as described above. […] Cells were grown with shaking as described above, and 1 ml aliquots were removed each hour in duplicate and optical density at 600 nm measured (OD600) by spectrophotometer (Biomate 3S, Thermo Scientific).
# [2] = tested on: S. aureus pre-formed mono-species biofilm; experiment: pre-formed mature biofilm (XTT, CFU); format: cell-based, Staphylococcus aureus
# Description: The effect of L-161, 982 on pre-formed mature biofilms was tested. Mono- and dual-species C. albicans and/or S. aureus biofilms were grown on 96-well plates for 24 h before being treated with the indicated concentration of L-161, 982 for a further 24 h. After treatment, metabolic activity of biofilms was quantified by the XTT assay (A) and then biofilms were disrupted to determine live colony forming units (CFU) (B). The results are cumulative of three independent experiments with duplicate samples. Statistics were performed using One-way ANOVA with the Tukey post-hoc test for the XTT assay. The Mann-Whitney U test was used to analyze CFU data. Significance is indicated as follows: ns—not significant, *P<0.05; *** P<0.001. Error bars represent standard deviation.
# Following growth as described above, microbes were washed in phosphate-buffered saline (PBS) by centrifugation, counted on a hemocytometer, and adjusted to 2×10^7 CFU/ml in RPMI buffered with MOPS (165 mM). For monomicrobial biofilms, 50 μl of adjusted C. albicans or S. aureus culture was added to each well of a sterile 96-well cell culture polystyrene microtiter plate (1×10^6 CFU per well); to this, 50 μl of sterile RPMI+MOPS was added. For polymicrobial biofilms, 50 μl of each organism was added per well (1×10^6 CFU of each organism per well). Plates were incubated for 24 h at 37° C. to induce biofilm formation. Following confirmation of mature biofilm growth by macro- and microscopic examination, plates were washed once with 200 μl sterile saline and then 200 μl RPMI+MOPS containing L-161, 982 at various concentrations (6.25-200 μg/ml) added to each well. […]
# The XTT reduction assay was used to determine the metabolic activity of biofilms following treatment with L-161, 982 (17). Briefly, wells were washed once in PBS, and plates incubated at 37° C. for 2 h with 200 μl XTT working reagent (0.5 mg/ml XTT and 1 μM Menadione) and the resulting absorbance measured at 490 nm on a microplate spectrophotometer. […]
smiles,measurement,setting,value
"CCCCc1nn(-c2ccccc2C(F)(F)F)c(=O)n1Cc1ccc(-c2ccccc2S(=O)(=O)NC(=O)c2sccc2C)cc1 [L-161, 982, N-[[4′-[[3-Butyl-1,5-dihydro-5-oxo-1-[2-(trifluoromethyl)phenyl]-4H-1,2,4-triazol-4-yl]methyl][1,1′-biphenyl]-2-yl]sulfonyl]-3-methyl-2-thiophenecarboxamide]",colony phenotype,S. aureus,grew as small colonies
same,Ki,DP,5.1 µM
same,growth of clinical MRSA and MSSA strains,[1],inhibited growth
same,concentration required to weaken pre-formed mature biofilms,[2],100 µg/mL
same,CFUs recovered from pre-formed biofilm,[2]; 100 and 200 μg/ml,no CFUs were recovered
same,metabolic activity of pre-formed biofilm,"[2]; all concentrations tested, 24 h treatment",no significant inhibitory effects
